Test results from patent publication US12257339B2, “Phytocomplex and extract of a meristematic cell line selected from a plant belonging to the genus Rosa” (AETHERA BIOTECH S.R.L., priority 2019, dated 2025).

Assay: Antioxidant activity, DPPH method
Format: biochemical
Settings: methanol extract/solution; absorbance at 517 nm
Method: The assay of antioxidant activity was performed using the DPPH method. The assay with the DPPH (2,2-diphenyl-1-picryl-hydrazyl) radical has the aim of evaluating, in vitro, the antioxidant activity of the line of Rosa […] vis-à-vis a stained stable radical and measuring its disappearance by spectrophotometry. […] The Rc-F2P homogenate of meristematic cells of Rosa […] extracted in methanol and placed in an ultrasonic bath for 20 minutes. Various aliquots of solution were taken and they were added to a same amount of DPPH solution and brought to volume with methanol, so as to evaluate the antioxidant capacity of the sample at different concentrations. The results are expressed as EC50, i.e. as the concentration of the Rc-F2P phytocomplex capable of decreasing the initial absorbance of the radical at 517 nm by 50%. The result is then compared with that obtained from a methanol solution of ascorbic acid, used as a reference. The lower the EC50, the greater the antioxidant capacity.

EC50 (concentration decreasing the initial absorbance of the DPPH radical at 517 nm by 50%): 3.19 ± 0.16 µg/mL
Structure (SMILES): O=C1O[C@H]([C@@H](O)CO)C(O)=C1O [Ascorbic acid, ascorbic acid]
